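Five concentrations, 48 hours, 96-well plates. Here, GI50 denotes the concentration required for 50% inhibition of growth. The concentration for full growth arrest is given as TGI.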
Columns and labels:
Assay in all cases: DTP human tumour cell line panel, 48 h
HT29 colon = system: HT29 colon
SK-MEL-2 melanoma = system: SK-MEL-2 melanoma
PC-3 prostate = system: PC-3 prostate
SF-268 CNS = system: SF-268 CNS
OVCAR-8 ovarian = system: OVCAR-8 ovarian
MDA-MB-435 = system: MDA-MB-435
IGROV1 ovarian = system: IGROV1 ovarian
SW-620 colon = system: SW-620 colon
NCI-H522 lung = system: NCI-H522 lung
K-562 leukemia = system: K-562 leukemia
EKVX NSCLC = system: EKVX NSCLC
SK-MEL-5 melanoma = system: SK-MEL-5 melanoma
RXF 393 renal = system: RXF 393 renal
MCF7 breast = system: MCF7 breast
A549 NSCLC = system: A549 NSCLC
SNB-19 CNS = system: SNB-19 CNS
UACC-257 melanoma = system: UACC-257 melanoma
ACHN renal = system: ACHN renal
A498 renal = system: A498 renal
SN12C renal = system: SN12C renal
OVCAR-3 ovarian = system: OVCAR-3 ovarian
NCI-H23 lung = system: NCI-H23 lung
KM12 colon = system: KM12 colon
OVCAR-5 ovarian = system: OVCAR-5 ovarian
TK-10 renal = system: TK-10 renal
SK-MEL-28 melanoma = system: SK-MEL-28 melanoma
UACC-62 melanoma = system: UACC-62 melanoma
NCI-H460 lung = system: NCI-H460 lung
OVCAR-4 ovarian = system: OVCAR-4 ovarian
UO-31 renal = system: UO-31 renal
HS 578T breast = system: HS 578T breast
T-47D breast = system: T-47D breast
NCI-H226 lung = system: NCI-H226 lung
CAKI-1 renal = system: CAKI-1 renal
CCRF-CEM leukemia = system: CCRF-CEM leukemia
DU-145 prostate = system: DU-145 prostate
BT-549 breast = system: BT-549 breast
SK-OV-3 ovarian = system: SK-OV-3 ovarian
HCT-15 colon = system: HCT-15 colon
COLO 205 colon = system: COLO 205 colon
HCC-2998 colon = system: HCC-2998 colon
SF-295 CNS = system: SF-295 CNS
MALME-3M melanoma = system: MALME-3M melanoma
NCI/ADR-RES ovarian = system: NCI/ADR-RES ovarian
SF-539 CNS = system: SF-539 CNS
MDA-MB-231 breast = system: MDA-MB-231 breast
HOP-62 NSCLC = system: HOP-62 NSCLC
HL-60(TB) leukemia = system: HL-60(TB) leukemia
SNB-75 CNS = system: SNB-75 CNS

Work on `CCCCCCCCCCCCCCCCCCOc1ccccc1COP(=O)(O)OOCC[N+](C)(C)C` yielded a GI50 (HT29 colon) of 1210 nM, a TGI (HT29 colon) of 5.38 µM and a GI50 (SK-MEL-2 melanoma) of 1710 nM. The TGI (SK-MEL-2 melanoma) was 9.65 µM, the GI50 (PC-3 prostate) was 824 nM and the TGI (PC-3 prostate) was 1800 nM. For the same compound, the GI50 (SF-268 CNS) was 1550 nM, the TGI (SF-268 CNS) was 7.19 µM and the GI50 (OVCAR-8 ovarian) was 1410 nM. It also gave a TGI (OVCAR-8 ovarian) of 9.22 µM, a GI50 (MDA-MB-435) of 2650 nM and a TGI (MDA-MB-435) of 12.3 µM. The GI50 (IGROV1 ovarian) was 738 nM, the TGI (IGROV1 ovarian) was 1500 nM and the GI50 (SW-620 colon) was 1430 nM. It also gave a TGI (SW-620 colon) of 5.36 µM, a GI50 (NCI-H522 lung) of 1730 nM and a TGI (NCI-H522 lung) of 13.1 µM. It also gave a GI50 (K-562 leukemia) of 1230 nM, a TGI (K-562 leukemia) of 50 µM and a GI50 (EKVX NSCLC) of 1770 nM. It also gave a TGI (EKVX NSCLC) of 10.3 µM, a GI50 (SK-MEL-5 melanoma) of 813 nM and a TGI (SK-MEL-5 melanoma) of 1500 nM. It also gave a GI50 (RXF 393 renal) of 911 nM, a TGI (RXF 393 renal) of 1960 nM and a GI50 (MCF7 breast) of 1140 nM. It also gave a TGI (MCF7 breast) of 3.32 µM, a GI50 (A549 NSCLC) of 5.5 µM and a TGI (A549 NSCLC) of 23.6 µM. The GI50 (SNB-19 CNS) was 1440 nM, the TGI (SNB-19 CNS) was 7.76 µM and the GI50 (UACC-257 melanoma) was 1540 nM. The TGI (UACC-257 melanoma) was 6.45 µM, the GI50 (ACHN renal) was 1450 nM and the TGI (ACHN renal) was 5.62 µM. The GI50 (A498 renal) was 6.88 µM, the TGI (A498 renal) was 17.2 µM and the GI50 (SN12C renal) was 1100 nM. The TGI (SN12C renal) was 3.17 µM, the GI50 (OVCAR-3 ovarian) was 993 nM and the TGI (OVCAR-3 ovarian) was 2560 nM. For the same compound, the GI50 (NCI-H23 lung) was 804 nM, the TGI (NCI-H23 lung) was 4.27 µM and the GI50 (KM12 colon) was 1010 nM. The TGI (KM12 colon) was 2120 nM, the GI50 (OVCAR-5 ovarian) was 1510 nM and the TGI (OVCAR-5 ovarian) was 6.86 µM. For the same compound, the GI50 (TK-10 renal) was 1350 nM, the TGI (TK-10 renal) was 4.49 µM and the GI50 (SK-MEL-28 melanoma) was 1590 nM. For the same compound, the TGI (SK-MEL-28 melanoma) was 6.2 µM, the GI50 (UACC-62 melanoma) was 901 nM and the TGI (UACC-62 melanoma) was 2820 nM. It also gave a GI50 (NCI-H460 lung) of 2810 nM, a TGI (NCI-H460 lung) of 12.5 µM and a GI50 (OVCAR-4 ovarian) of 1330 nM. It also gave a TGI (OVCAR-4 ovarian) of 9.92 µM, a GI50 (UO-31 renal) of 1270 nM and a TGI (UO-31 renal) of 6.76 µM. The GI50 (HS 578T breast) was 1180 nM, the TGI (HS 578T breast) was 4.91 µM and the GI50 (T-47D breast) was 1790 nM. For the same compound, the TGI (T-47D breast) was 11.2 µM, the GI50 (NCI-H226 lung) was 1160 nM and the TGI (NCI-H226 lung) was 5.54 µM. The GI50 (CAKI-1 renal) was 1200 nM, the TGI (CAKI-1 renal) was 4.14 µM and the GI50 (CCRF-CEM leukemia) was 751 nM. The TGI (CCRF-CEM leukemia) was 2020 nM, the GI50 (DU-145 prostate) was 1880 nM and the TGI (DU-145 prostate) was 7.43 µM. It also gave a GI50 (BT-549 breast) of 1320 nM, a TGI (BT-549 breast) of 4.26 µM and a GI50 (SK-OV-3 ovarian) of 2380 nM. For the same compound, the TGI (SK-OV-3 ovarian) was 10.6 µM, the GI50 (HCT-15 colon) was 1640 nM and the TGI (HCT-15 colon) was 7.87 µM. For the same compound, the GI50 (COLO 205 colon) was 1040 nM, the TGI (COLO 205 colon) was 2570 nM and the GI50 (HCC-2998 colon) was 787 nM. The TGI (HCC-2998 colon) was 1600 nM, the GI50 (SF-295 CNS) was 1230 nM and the TGI (SF-295 CNS) was 4.32 µM. It also gave a GI50 (MALME-3M melanoma) of 1160 nM, a TGI (MALME-3M melanoma) of 3.21 µM and a GI50 (NCI/ADR-RES ovarian) of 6.59 µM. The TGI (NCI/ADR-RES ovarian) was 20.6 µM, the GI50 (SF-539 CNS) was 1190 nM and the TGI (SF-539 CNS) was 3.02 µM. For the same compound, the GI50 (MDA-MB-231 breast) was 932 nM, the TGI (MDA-MB-231 breast) was 2260 nM and the GI50 (HOP-62 NSCLC) was 2190 nM. It also gave a TGI (HOP-62 NSCLC) of 15.4 µM, a GI50 (HL-60(TB) leukemia) of 846 nM and a TGI (HL-60(TB) leukemia) of 2190 nM. It also gave a GI50 (SNB-75 CNS) of 960 nM and a TGI (SNB-75 CNS) of 3.51 µM.

— PubChem BioAssay (NCI)
